# PubChem BioAssay AID330 (DTP/NCI, 2004)
# Several values for one entry are separate records, joined by “and”; a condition that tells them apart may be missing. Equal values may be shown once. Inconclusive results and toxic doses are left out.
# Tested on: P388 leukemia ip, CD2F1 mice, survival T/C
# Test: NCI In Vivo Anticancer Drug Screen. Data for tumor model P388 Leukemia (intraperitoneal) in CD2F1 (CDF1) mice
# Conditions: endpoint: median survival time, higher = longer survival
# Summary of the method: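 Mice carrying the transplanted tumor received test compound or vehicle. Survival was recorded in each group, and the value is the treated-group measurement divided by that of the vehicle-treated control group.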
# [1] = dose: 100.0 mg/kg/injection, schedule: Q01DX009 (ip), vehicle: saline
# [2] = dose: 200.0 mg/kg/injection, schedule: Q01DX009 (ip), vehicle: saline
# [3] = dose: 60.0 mg/kg/injection, schedule: Q01DX005 (ip), vehicle: Klucel (hydroxypropylcellulose) (HPC)
# [4] = dose: 120.0 mg/kg/injection, schedule: Q01DX005 (ip), vehicle: Klucel (hydroxypropylcellulose) (HPC)
# [5] = dose: 240.0 mg/kg/injection, schedule: Q01DX005 (ip), vehicle: Klucel (hydroxypropylcellulose) (HPC)
# [6] = dose: 50.0 mg/kg/injection, schedule: Q01DX009 (ip), vehicle: saline with Tween-80
# [7] = dose: 100.0 mg/kg/injection, schedule: Q01DX009 (ip), vehicle: saline with Tween-80
# [8] = dose: 200.0 mg/kg/injection, schedule: Q01DX009 (ip), vehicle: saline with Tween-80
# [9] = dose: 50.0 mg/kg/injection, schedule: Q01DX005 (ip), vehicle: Klucel (hydroxypropylcellulose) (HPC)
# [10] = dose: 100.0 mg/kg/injection, schedule: Q01DX005 (ip), vehicle: Klucel (hydroxypropylcellulose) (HPC)
# [11] = dose: 100.0 mg/kg/injection, schedule: Q01DX001 (ip), vehicle: Klucel (hydroxypropylcellulose) (HPC)
# [12] = dose: 200.0 mg/kg/injection, schedule: Q01DX001 (ip), vehicle: Klucel (hydroxypropylcellulose) (HPC)
# [13] = dose: 50.0 mg/kg/injection, schedule: Q04DX003 (ip), vehicle: saline with Tween-80
# [14] = dose: 60.0 mg/kg/injection, schedule: Q01DX005 (ip), vehicle: saline
# [15] = dose: 120.0 mg/kg/injection, schedule: Q01DX005 (ip), vehicle: saline
# [16] = dose: 240.0 mg/kg/injection, schedule: Q01DX005 (ip), vehicle: saline
# [17] = dose: 60.0 mg/kg/injection, schedule: Q01DX005 (ip), vehicle: saline with Tween-80
# [18] = dose: 120.0 mg/kg/injection, schedule: Q01DX005 (ip), vehicle: saline with Tween-80
# [19] = dose: 240.0 mg/kg/injection, schedule: Q01DX005 (ip), vehicle: saline with Tween-80
# [20] = dose: 50.0 mg/kg/injection, schedule: Q01DX005 (ip), vehicle: saline with Tween-80
# [21] = dose: 100.0 mg/kg/injection, schedule: Q01DX005 (ip), vehicle: saline with Tween-80
# [22] = dose: 50.0 mg/kg/injection, schedule: Q01DX005 (ip), vehicle: saline
# [23] = dose: 100.0 mg/kg/injection, schedule: Q01DX005 (ip), vehicle: saline
structure (smiles),measurement,setting,value
CCCCCCCCCCCCC(=O)CCCCC(=O)OC1OCC23OC2C2CC(C)(C)CC2C2(C)CC123 (configuration not stated),T/C,"dose: 10.0 mg/kg/injection, schedule: Q01DX005 (ip), vehicle: olive oil, sesame oil, peanut oil",105 % of control
same,T/C,"dose: 20.0 mg/kg/injection, schedule: Q01DX005 (ip), vehicle: olive oil, sesame oil, peanut oil",95 % of control
same,T/C,"dose: 40.0 mg/kg/injection, schedule: Q01DX005 (ip), vehicle: olive oil, sesame oil, peanut oil",101 % of control
same,T/C,"dose: 80.0 mg/kg/injection, schedule: Q01DX005 (ip), vehicle: olive oil, sesame oil, peanut oil",94 % of control
COc1cccc(CSCC(=O)O)c1,T/C,"dose: 50.0 mg/kg/injection, schedule: Q01DX009 (ip), vehicle: saline",97 % of control
same,T/C,[1],102 % of control
same,T/C,[2],92 % of control
S=C1NCC(c2ccc(Cl)cc2)[Se]1 (configuration not stated),T/C,"dose: 50.0 mg/kg/injection, schedule: Q01DX009 (ip), vehicle: DMSO",100 % of control
same,T/C,"dose: 100.0 mg/kg/injection, schedule: Q01DX009 (ip), vehicle: DMSO",100 % of control
Cc1ccc(S(=O)(=O)N(C)C)cc1NC1=NCCO1,T/C,"dose: 50.0 mg/kg/injection, schedule: Q01DX001 (ip), vehicle: saline with Tween-80",95 % of control
same,T/C,"dose: 100.0 mg/kg/injection, schedule: Q01DX001 (ip), vehicle: saline with Tween-80",95 % of control
same,T/C,"dose: 200.0 mg/kg/injection, schedule: Q01DX001 (ip), vehicle: saline with Tween-80",100 % of control
CC(C)(C)C1=CC(C#N)N(Cc2ccccc2)CC1 (configuration not stated),T/C,[3],110 % of control
same,T/C,[4],108 % of control
same,T/C,[5],109 % of control
O=C(O)c1ccccc1N=Nc1ccc(N(CCCl)CCCl)cc1,T/C,"dose: 3.13 mg/kg/injection, schedule: Q04DX003 (ip), vehicle: Klucel (hydroxypropylcellulose) (HPC)",122 % of control
same,T/C,"dose: 6.25 mg/kg/injection, schedule: Q01DX009 (ip), vehicle: saline with Tween-80",166 % of control
same,T/C,"dose: 12.5 mg/kg/injection, schedule: Q01DX009 (ip), vehicle: saline with Tween-80",152 % of control and 154 % of control
same,T/C,"dose: 12.5 mg/kg/injection, schedule: Q04DX003 (ip), vehicle: Klucel (hydroxypropylcellulose) (HPC)",177 % of control
same,T/C,"dose: 25.0 mg/kg/injection, schedule: Q01DX009 (ip), vehicle: saline with Tween-80",162 % of control and 166 % of control
same,T/C,[6],99 % of control
CN1C(=O)C/C(=N/Nc2ccccc2)NC1=O,T/C,[6],95 % of control
same,T/C,[7],100 % of control
same,T/C,[8],92 % of control
CC(C)(C)CC(C)(C)c1ccc(OCc2ccc(Cl)cc2)cc1,T/C,[6],100 % of control
same,T/C,[7],100 % of control
same,T/C,[8],98 % of control
Clc1cccc2nc(-c3ccccn3)n(CCc3ccccn3)c12,T/C,[9],96 % of control
same,T/C,[10],100 % of control
same,T/C,"dose: 200.0 mg/kg/injection, schedule: Q01DX005 (ip), vehicle: Klucel (hydroxypropylcellulose) (HPC)",100 % of control
O=c1[nH][nH]c(=O)n1/N=C\c1ccccc1O,T/C,"dose: 50.0 mg/kg/injection, schedule: Q01DX001 (ip), vehicle: Klucel (hydroxypropylcellulose) (HPC)",100 % of control
same,T/C,[11],104 % of control
same,T/C,[12],98 % of control
CN(C)c1ccc(/C=N/NC(N)=S)nc1,T/C,[13],150 % of control
CN(CCO)c1cnn(CCO)c(=O)c1Cl,T/C,[14],102 % of control
same,T/C,[15],105 % of control
same,T/C,[16],102 % of control
c1ccc(OCc2cn[nH]n2)cc1,T/C,[17],100 % of control
same,T/C,[18],103 % of control
same,T/C,[19],100 % of control
CC(=O)OCC1OC(OC2=C(CC=C(C)C)C(=O)c3ccccc3C2=O)C(OC(C)=O)C(OC(C)=O)C1OC(C)=O (configuration not stated),T/C,"dose: 25.0 mg/kg/injection, schedule: Q04DX003 (ip), vehicle: saline with Tween-80",100 % of control
same,T/C,[13],102 % of control
same,T/C,"dose: 100.0 mg/kg/injection, schedule: Q04DX003 (ip), vehicle: saline with Tween-80",94 % of control
same,T/C,"dose: 200.0 mg/kg/injection, schedule: Q04DX003 (ip), vehicle: saline with Tween-80",114 % of control
BrCCCCOCBr,T/C,[14],95 % of control
same,T/C,[15],95 % of control
same,T/C,[16],86 % of control
CB1NN=C(C)c2ccsc21,T/C,[6],110 % of control
C/C=C/C=C\C=C/C(O)CC(OP(=O)(O)O)C(C)(O)/C=C/C1CC=CC(=O)O1 (configuration not stated),T/C,"dose: 0.75 mg/kg/injection, schedule: Q01DX005 (ip), vehicle: water",116 % of control
same,T/C,"dose: 1.5 mg/kg/injection, schedule: Q01DX005 (ip), vehicle: water",119 % of control
same,T/C,"dose: 6.25 mg/kg/injection, schedule: Q01DX005 (ip), vehicle: water",183 % of control
CCOC(=O)C1=C(/C=C/c2cccc(Cl)c2)O/C(=C/c2cccc(Cl)c2)C1=O,T/C,[20],87 % of control
same,T/C,[21],96 % of control
same,T/C,"dose: 200.0 mg/kg/injection, schedule: Q01DX005 (ip), vehicle: saline with Tween-80",106 % of control
CSc1sc(C#N)c(N)c1N=Cc1ccccc1,T/C,"dose: 12.5 mg/kg/injection, schedule: Q04DX002 (ip), vehicle: saline with Tween-80",106 % of control
same,T/C,"dose: 25.0 mg/kg/injection, schedule: Q04DX002 (ip), vehicle: saline with Tween-80",101 % of control
same,T/C,"dose: 50.0 mg/kg/injection, schedule: Q04DX002 (ip), vehicle: saline with Tween-80",97 % of control
O=C(Oc1ccc(=O)[nH]n1)c1ccccc1,T/C,[3],102 % of control
same,T/C,[4],115 % of control
same,T/C,[5],111 % of control
CC(=O)O[C@H]1/C=C(\C)[C@@H](O)C/C=C(\C)CC(OC(=O)c2ccccc2)[C@H]1C(C)C (some centres not stated),T/C,"dose: 12.5 mg/kg/injection, schedule: Q01DX005 (ip), vehicle: Klucel (hydroxypropylcellulose) (HPC)",98 % of control
same,T/C,"dose: 25.0 mg/kg/injection, schedule: Q01DX005 (ip), vehicle: Klucel (hydroxypropylcellulose) (HPC)",98 % of control
same,T/C,[9],100 % of control
same,T/C,[10],95 % of control
Cc1cnc2cc(Cl)ccc2c1NCCNCCO,T/C,[22],119 % of control
same,T/C,[23],119 % of control
COc1cccc2c(=O)cc(-c3ccccc3)sc12,T/C,[3],98 % of control
same,T/C,[4],97 % of control
same,T/C,[5],90 % of control
O=C1NN=C2CCCCCCCCCCC12Cl (configuration not stated),T/C,[6],108 % of control
same,T/C,[7],106 % of control
same,T/C,[8],106 % of control
CCOC(=O)c1cn[nH]c(=O)c1C,T/C,[6],100 % of control
same,T/C,[7],96 % of control
same,T/C,[8],104 % of control
Cc1cc(OP2(=O)Nc3ccccc3-c3ccccc3N2)ccc1Cl,T/C,[20],98 % of control
same,T/C,[21],89 % of control
Cc1ccc(S(=O)(=O)NCc2cccc([N+](=O)[O-])c2)cc1,T/C,[3],94 % of control
same,T/C,[4],104 % of control
same,T/C,[5],98 % of control
C/C(Cl)=C\c1nc2ccccc2nc1Cl,T/C,[11],100 % of control
same,T/C,[12],92 % of control
same,T/C,"dose: 400.0 mg/kg/injection, schedule: Q01DX001 (ip), vehicle: Klucel (hydroxypropylcellulose) (HPC)",92 % of control
N#CC(=S)N(C(=O)c1ccc(Cl)cc1)c1ccccc1Cl,T/C,"dose: 60.0 mg/kg/injection, schedule: Q01DX005 (ip), vehicle: Klucel + Tween-80",103 % of control
same,T/C,"dose: 120.0 mg/kg/injection, schedule: Q01DX005 (ip), vehicle: Klucel + Tween-80",112 % of control
COC(=O)c1nc(NC#N)[nH]c(=O)c1CCCCCc1cnc(NC#N)nc1,T/C,[17],100 % of control
same,T/C,[18],100 % of control
same,T/C,[19],97 % of control
NC(Cn1ccc(=O)c(O)c1)C(=O)O (configuration not stated),T/C,"dose: 12.5 mg/kg/injection, schedule: Q01DX005 (ip), vehicle: saline",113 % of control
same,T/C,"dose: 25.0 mg/kg/injection, schedule: Q01DX005 (ip), vehicle: saline",115 % of control
same,T/C,[22],107 % of control
same,T/C,[23],116 % of control
same,T/C,[1],100 % of control and 96 % of control
same,T/C,"dose: 200.0 mg/kg/injection, schedule: Q01DX005 (ip), vehicle: saline",114 % of control
same,T/C,[2],102 % of control and 114 % of control
same,T/C,"dose: 400.0 mg/kg/injection, schedule: Q01DX009 (ip), vehicle: saline",107 % of control and 96 % of control
same,T/C,"dose: 600.0 mg/kg/injection, schedule: Q01DX009 (ip), vehicle: saline",98 % of control and 102 % of control
